Assay results as given in PMC9658586, “1,4-Naphthoquinone Motif in the Synthesis of New Thiopyrano[2,3-d]thiazoles as Potential Biologically Active Compounds” (Molecules, 2022).

Tests used:
MCF7/Breast Cancer = experiment: NCI single-dose screen, MCF7; assay type: cell-based, human; conditions: 10 μM, 48 h
Method: (§1) Considering the results of previous studies of fused thiazolidinones and their analogs, a series of thiopyrano[2,3-d]thiazoles with naphthoquinone fragments in the structure were studied for their anticancer activity. Thus, synthesized thiopyranothiazole derivatives 3.5 and 3.6 were selected by the National Cancer Institute (NCI), U.S., for their anticancer activity at 10 μM concentration toward a panel of sixty cancer cell lines representing nine different types (leukemia, melanoma, lung, colon, CNS, ovarian, renal, prostate, and breast cancers) (Figures S13–S14). Selection for screening based on new derivatives’ ability to add diversity to the NCI small molecules collection and anticancer assays were performed according to the NCI guidelines and protocols previously described. The compounds were added at the mentioned concentration, and the cell cultures were incubated for 48 h. The results for each compound were reported as the growth percent (GP%) of treated cells compared with untreated control cells.
(§2) Anticancer in vitro assay was performed on the human tumor cell lines panel derived from nine neoplastic diseases by the protocol of the Drug Evaluation Branch, National Cancer Institute, Bethesda, MD, USA [44, 45, 46]. […] GP% was spectrophotometrically evaluated vs. controls not treated with test agents.

UO-31/Renal Cancer = experiment: NCI single-dose screen, UO-31; assay type: cell-based, human; conditions: 10 μM, 48 h
Method: as §1, §2

LOX IMVI/Melanoma = experiment: NCI single-dose screen, LOX IMVI; assay type: cell-based, human; conditions: 10 μM, 48 h
Method: as §1, §2

MALME-3M/Melanoma = experiment: NCI single-dose screen, MALME-3M; assay type: cell-based, human; conditions: 10 μM, 48 h
Method: as §1, §2

salmon sperm DNA = experiment: Spectroscopic DNA interaction assay (KMnO4 oxidation); assay type: binding; conditions: DNA + compound + KMnO4, time- and concentration-dependent, up to 3 h; binder if >0.05 or <−0.05
Source text: The method investigates conformational changes in the DNA; for example, when DNA is exposed to an intercalating, alkylation, or other classes of DNA-binding agents. It is based on the oxidative reaction of potassium permanganate with pyrimidine bases. Compounds that interact with DNA distort its duplex structure, thus exposing pyrimidine bases for oxidation by KMnO4, which generates products that can be detected by spectrophotometry. Different classes of DNA-binding compounds can be studied in such a way. […] Net A405 ranged from 0.00 to 0.50 in the presence of the compound, and Net A405 ranged from 0.02 to 0.045 in the control case (Figure 9).
A spectroscopic DNA interaction study was performed as previously described. salmon sperm DNA (Sigma-Aldrich, USA) was diluted in Milli-Q water at 4 °C for 24 h at 1.65 mg/mL. Tested compounds were dissolved in acetone. After 1 h of incubation of DNA and compound, KMnO4 was added to a final concentration of 0.3 mM and the absorbance at 405 nm was measured (Absorbance Reader BioTek ELx800) (BioTek Instruments, Inc., Winooski, VT, USA) in different periods up to 3 h. Appropriate controls of DNA alone and compound alone were included, and these Abs values were subtracted from the test sample to provide the net change in absorbance (NetAbs). […]

[1] = system: SNB-75/ Central Nervous System Cancer; experiment: NCI single-dose screen, SNB-75; assay type: cell-based, human; conditions: 10 μM, 48 h
Method: as §1, §2

A498/ Renal Cancer = experiment: NCI single-dose screen, A498; assay type: cell-based, human; conditions: 10 μM, 48 h
Method: as §1, §2

M14/ADR-RES/ Melanoma = experiment: NCI single-dose screen, M14/ADR-RES; assay type: cell-based, human; conditions: 10 μM, 48 h
Method: (§3) Selection for screening based on new derivatives’ ability to add diversity to the NCI small molecules collection and anticancer assays were performed according to the NCI guidelines and protocols previously described. The compounds were added at the mentioned concentration, and the cell cultures were incubated for 48 h.
as §2, with “46]. Tested compounds were added to the culture at a single concentration (10^−5 M), and the cultures were incubated for 48 h.” for “46].”

COLO-205/ Colon Cancer = experiment: NCI single-dose screen, COLO-205; assay type: cell-based, human; conditions: 10 μM, 48 h
Method: as §1, §2

SK-MEL-2/Melanoma = experiment: NCI single-dose screen, SK-MEL-2; assay type: cell-based, human; conditions: 10 μM, 48 h
Method: as §1, §2

SK-MEL-5/Melanoma = experiment: NCI single-dose screen, SK-MEL-5; assay type: cell-based, human; conditions: 10 μM, 48 h
Method: as §3
as §2, with “46]. Tested compounds were added to the culture at a single concentration (10^−5 M), and the cultures were incubated for 48 h.” for “46].”

Compound | Most Sensitive Cell Line Growth, % (MCF7/Breast Cancer) (MCF7/Breast Cancer) [%] | Most Sensitive Cell Line Growth, % (UO-31/Renal Cancer) (UO-31/Renal Cancer) [%] | Most Sensitive Cell Line Growth, % (LOX IMVI/Melanoma) (LOX IMVI/Melanoma) [%] | Most Sensitive Cell Line Growth, % (MALME-3M/Melanoma) (MALME-3M/Melanoma) [%] | Net A405 (net change in absorbance) (salmon sperm DNA) | Most Sensitive Cell Line Growth, % (SNB-75/ Central Nervous System Cancer) [1] [%] | Most Sensitive Cell Line Growth, % (A498/ Renal Cancer) (A498/ Renal Cancer) [%] | Most Sensitive Cell Line Growth, % (M14/ADR-RES/ Melanoma) (M14/ADR-RES/ Melanoma) [%] | Most Sensitive Cell Line Growth, % (COLO-205/ Colon Cancer) (COLO-205/ Colon Cancer) [%] | Most Sensitive Cell Line Growth, % (SK-MEL-2/Melanoma) (SK-MEL-2/Melanoma) [%] | Most Sensitive Cell Line Growth, % (SK-MEL-5/Melanoma) (SK-MEL-5/Melanoma) [%]
O=C1C2=C(C(=O)c3ccccc31)C(CCc1ccccc1)c1sc(=O)[nH]c1S2 (centres unmarked) [Compound 3.6, 11-Phenethyl-3,11-dihydro-2H-benzo[6,7]thiochromeno[2,3-d]thiazole-2,5,10-trione] | 58.83 | 51.76 | 57.17 | 45.25 | 0.00 to 0.50 | – | – | – | – | – | –
COc1cccc2c1C(=O)c1c(O)c3c(c(O)c1C2=O)C[C@@](O)(C(=O)CO)C[C@@H]3O[C@H]1C[C@H](N)[C@H](O)[C@H](C)O1 [Doxorubicin, doxorubicin, reference compound] | – | – | – | – | – | −76.10 | −75.10 | −71.60 | −81.60 | −82.60 | −86.40
